Experimental data: paper PMC7807415 (Toxicology letters, 2020)
Several values for one entry are separate records, joined by “and”; a condition that tells them apart may be missing. Equal entries are not always repeated.

How the values were obtained:
[1] = FAERS search for hepatobiliary disorder cases involving meloxicam; design: species or system human
CYP3A4 = CYP3A4 (Homo sapiens, UniProt P08684); details: 400 µM sudoxicam, 100 nM CYP3A4, 30 min
CYP2C19 = CYP2C19 (Homo sapiens, UniProt P33261); details: 400 µM sudoxicam, 100 nM CYP2C19, 30 min
[2] = system: P450 activity in human liver microsomes (HLM150); experiment: Inhibitor phenotyping of bioactivation in human liver microsomes; assay type: in vitro ADME
[3] = BJC HealthCare electronic health record cohort: DILI hospitalizations; design: species or system human; details: of 2800 DILI hospitalizations; 4570 hospitalizations prescribed meloxicam
[4] = patients; ref Gschwend et al., 2007; cited from earlier work
CYP1A2 = target: T1, CYP1A2 (Homo sapiens, UniProt P05177); details: pH 7.4
T1 sequence (P05177 1-516): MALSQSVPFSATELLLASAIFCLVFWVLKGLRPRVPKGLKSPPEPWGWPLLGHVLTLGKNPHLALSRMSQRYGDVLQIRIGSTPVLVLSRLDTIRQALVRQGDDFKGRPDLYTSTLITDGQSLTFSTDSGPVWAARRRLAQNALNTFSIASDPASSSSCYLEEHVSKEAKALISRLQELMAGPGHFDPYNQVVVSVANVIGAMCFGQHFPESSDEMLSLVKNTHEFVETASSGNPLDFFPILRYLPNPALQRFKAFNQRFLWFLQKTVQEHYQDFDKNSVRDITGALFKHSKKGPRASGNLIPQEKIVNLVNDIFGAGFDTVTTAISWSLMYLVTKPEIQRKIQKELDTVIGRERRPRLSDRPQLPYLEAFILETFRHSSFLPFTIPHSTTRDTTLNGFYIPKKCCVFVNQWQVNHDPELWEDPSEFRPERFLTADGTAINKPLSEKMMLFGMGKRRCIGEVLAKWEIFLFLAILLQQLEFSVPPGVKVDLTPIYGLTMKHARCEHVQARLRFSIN

[5] = substrate: CN1C(C(=O)Nc2nccs2)=C(O)c2ccccc2S1(=O)=O; experiment: cells, lysate or membranes named; details: other: sudoxicam -> glyoxal (bioactivation), pH 7.4
[6] = substrate: Cc1cnc(NC(=O)C2=C(O)c3ccccc3S(=O)(=O)N2C)s1; experiment: cells, lysate or membranes named; details: other: meloxicam -> methylglyoxal (bioactivation), recombinant CYP 1A2; pH 7.4

Chain of CYP3A4 (P08684 whole entry): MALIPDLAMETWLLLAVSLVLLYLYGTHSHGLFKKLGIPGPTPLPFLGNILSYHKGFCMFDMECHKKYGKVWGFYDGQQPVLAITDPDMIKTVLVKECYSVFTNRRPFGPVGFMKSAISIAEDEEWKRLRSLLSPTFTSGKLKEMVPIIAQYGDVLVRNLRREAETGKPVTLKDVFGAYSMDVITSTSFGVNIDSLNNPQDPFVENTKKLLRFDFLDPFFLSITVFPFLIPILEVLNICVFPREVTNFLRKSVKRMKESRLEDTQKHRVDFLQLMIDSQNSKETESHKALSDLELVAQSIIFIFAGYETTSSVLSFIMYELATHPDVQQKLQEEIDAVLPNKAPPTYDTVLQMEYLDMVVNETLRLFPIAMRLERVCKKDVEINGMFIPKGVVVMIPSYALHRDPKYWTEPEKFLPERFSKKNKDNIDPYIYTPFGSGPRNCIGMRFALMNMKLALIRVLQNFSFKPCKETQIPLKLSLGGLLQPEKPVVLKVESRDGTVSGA

Question: Which “share of total applicable hepatobiliary cases with concomitant drug” value ([1]; human) does the source give for COc1ccc2[nH]c([S+]([O-])Cc3ncc(C)c(OC)c3C)nc2c1 (stereo not drawn) [omeprazole] here?
Answer: 6%

Question: Which “share of total applicable hepatobiliary cases with concomitant drug” value ([1]; human) does the source give for Cc1c(OCC(F)(F)F)ccnc1C[S+]([O-])c1nc2ccccc2[nH]1 (stereo not drawn) [lansoprazole] here?
Answer: 6%

Question: Which results are given for CN1C(C(=O)Nc2nccs2)=C(O)c2ccccc2S1(=O)=O [sudoxicam, N-(2-thiazolyl)-4-hydroxy-2-methyl-2H-1,2-benzothiazine-3-carboxamide 1,1-dioxide]?
Answer: glyoxal formation in recombinant P450 screen (CYP3A4): capable of catalyzing the reaction; glyoxal formation in recombinant P450 screen (CYP2C19): capable of catalyzing the reaction

Question: With Nn1nnc2ccccc21 [ABT, 1-aminobenzotriazole] as the molecule, how does the “blocked methylglyoxal formation (meloxicam bioactivation)” value ([2]; 1 mM ABT, 10 µM meloxicam, HLM150 0.5 mg/mL, 40 min) read?
Answer: 85%

Question: Which “effect on glyoxal formation (sudoxicam bioactivation)” value ([2]; 16 µM ANF (CYP1A2 inhibitor), 10 µM sudoxicam, HLM150) does the source give for O=c1cc(-c2ccccc2)oc2c1ccc1ccccc12 [ANF, α-naphthoflavone] here?
Answer: increased significantly the extent of the reaction

Question: For Cc1cnc(NC(=O)C2=C(O)c3ccccc3S(=O)(=O)N2C)s1 [meloxicam], which “hepatobiliary disorder cases resulting in death” value ([1]; FAERS, 1998 to 2020) is on record?
Answer: 39 cases

Question: What about the “serious cases of hepatobiliary disorders” value ([1]; human) of the same molecule?
Answer: 308 cases

Question: And the “total cases of hepatobiliary disorders” value ([1]; human)?
Answer: 326 cases

Question: And the “DILI hospitalizations that had been prescribed meloxicam” value [3]?
Answer: 8 hospitalizations

Question: What about the maximum plasma levels [4] of the same molecule?
Answer: 3.2 µM

Question: What about the “Scaled contribution of CYP1A2 (Vmax/Km)” value (CYP1A2) of the same molecule?
Answer: 0.457 pmol/min/mg protein/µM substrate

Question: And the Vmax (CYP1A2)?
Answer: 1000 ± 53 pmol/min/nmol protein

Question: And the “methylglyoxal formation in recombinant P450 screen” value (CYP1A2; recombinant enzyme, 30 min, 400 µM)?
Answer: only recombinant P450 to form detectable levels of methylglyoxal

Question: What about the “Percent contribution of CYP1A2” value (CYP1A2; recombinant enzyme) of the same molecule?
Answer: 100%

B1: CYP2C19 (Homo sapiens) (protein)
chain: MDPFVVLVLCLSCLLLLSIWRQSSGRGKLPPGPTPLPVIGNILQIDIKDVSKSLTNLSKIYGPVFTLYFGLERMVVLHGYEVVKEALIDLGEEFSGRGHFPLAERANRGFGIVFSNGKRWKEIRRFSLMTLRNFGMGKRSIEDRVQEEARCLVEELRKTKASPCDPTFILGCAPCNVICSIIFQKRFDYKDQQFLNLMEKLNENIRIVSTPWIQICNNFPTIIDYFPGTHNKLLKNLAFMESDILEKVKEHQESMDINNPRDFIDCFLIKMEKEKQNQQSEFTIENLVITAADLLGAGTETTSTTLRYALLLLLKHPEVTAKVQEEIERVIGRNRSPCMQDRGHMPYTDAVVHEVQRYIDLIPTSLPHAVTCDVKFRNYLIPKGTTILTSLTSVLHDNKEFPNPEMFDPRHFLDEGGNFKKSNYFMPFSAGKRICVGEGLARMELFLFLTFILQNFNLKSLIDPKDLDTTPVVNGFASVPPFYQLCFIPV
Question: With B1 as the molecule, how does the Km ([5]; recombinant CYP 2C19) read?
Answer: 23 ± 5.2 µM

B2: CYP2C8 (Homo sapiens) (protein)
chain: MEPFVVLVLCLSFMLLFSLWRQSCRRRKLPPGPTPLPIIGNMLQIDVKDICKSFTNFSKVYGPVFTVYFGMNPIVVFHGYEAVKEALIDNGEEFSGRGNSPISQRITKGLGIISSNGKRWKEIRRFSLTTLRNFGMGKRSIEDRVQEEAHCLVEELRKTKASPCDPTFILGCAPCNVICSVVFQKRFDYKDQNFLTLMKRFNENFRILNSPWIQVCNNFPLLIDCFPGTHNKVLKNVALTRSYIREKVKEHQASLDVNNPRDFIDCFLIKMEQEKDNQKSEFNIENLVGTVADLFVAGTETTSTTLRYGLLLLLKHPEVTAKVQEEIDHVIGRHRSPCMQDRSHMPYTDAVVHEIQRYSDLVPTGVPHAVTTDTKFRNYLIPKGTTIMALLTSVLHDDKEFPNPNIFDPGHFLDKNGNFKKSDYFMPFSAGKRICAGEGLARMELFLFLTTILQNFNLKSVDDLKNLNTTAVTKGIVSLPPSYQICFIPV
Question: Which Km ([5]; recombinant CYP 2C8) does the source give for B2 here?
Answer: 5 µM and 4.6 ± 0.89 µM

B3: CYP1A2 (Homo sapiens) (protein)
chain: MALSQSVPFSATELLLASAIFCLVFWVLKGLRPRVPKGLKSPPEPWGWPLLGHVLTLGKNPHLALSRMSQRYGDVLQIRIGSTPVLVLSRLDTIRQALVRQGDDFKGRPDLYTSTLITDGQSLTFSTDSGPVWAARRRLAQNALNTFSIASDPASSSSCYLEEHVSKEAKALISRLQELMAGPGHFDPYNQVVVSVANVIGAMCFGQHFPESSDEMLSLVKNTHEFVETASSGNPLDFFPILRYLPNPALQRFKAFNQRFLWFLQKTVQEHYQDFDKNSVRDITGALFKHSKKGPRASGNLIPQEKIVNLVNDIFGAGFDTVTTAISWSLMYLVTKPEIQRKIQKELDTVIGRERRPRLSDRPQLPYLEAFILETFRHSSFLPFTIPHSTTRDTTLNGFYIPKKCCVFVNQWQVNHDPELWEDPSEFRPERFLTADGTAINKPLSEKMMLFGMGKRRCIGEVLAKWEIFLFLAILLQQLEFSVPPGVKVDLTPIYGLTMKHARCEHVQARLRFSIN
Question: For B3, which Km [6] is on record?
Answer: 40 ± 7.5 µM
